Experimental data from ChEMBL document CHEMBL1129163, “Nucleosides and nucleotides. 155. synthesis, antitumor effects, and possible enzymatic activation mechanism of 5-phosphatidyl-2-deoxy-2-methylenecytidine (DMDC)” (1996).

Legend:
Mus musculus [1] = assay: Compound was evaluated for the antitumor activity against i.p.-implanted L1210 leukemia in mice for a dose of 0.125 mM/kg/day given orally on days 1-5.; type: functional
Mus musculus [2] = assay: Compound was evaluated for the antitumor activity against i.p.-implanted M5076 sarcoma in mice for a dose of 0.125 mM/kg/day on days 1-5.; type: functional
Mus musculus [3] = assay: Compound was evaluated for the antitumor activity against i.p.-implanted M5076 sarcoma in mice for a dose of 0.40 mM/kg/day given intraperitoneally on days 1-5.; type: functional
Mus musculus [4] = assay: Compound was evaluated for the antitumor activity against i.p.-implanted M5076 sarcoma by measuring 60 day survivor in four mice a dose of 0.125 mM/kg/day given orally on days 1-5.; type: functional
Mus musculus [5] = assay: Compound was evaluated for the antitumor activity against i.p.-implanted M5076 sarcoma by measuring 60 day survivor in four mice a dose of 0.40 mM/kg/day given orally on days 1-5.; type: functional
Mus musculus [6] = assay: Compound was evaluated for the antitumor activity against i.p.-implanted M5076 sarcoma in four mice for a dose of 0.40 mM/kg/day given intraperitoneally on days 1-5; Toxic; type: functional, organism-based
Mus musculus [7] = assay: Compound was evaluated for the antitumor activity against i.p.-implanted M5076 sarcoma by measuring 60 day survivor in four mice at a dose of 0.40 mM/kg/day given orally on days 1-5.; type: functional

Question: What does the source list for `C=C1C(n2ccc(N)nc2=O)O[C@H](CO)[C@@H]1O` (some centres undefined)?
Answer: ILS (Mus musculus [1]): 68%; ILS (Mus musculus [2]): 44%; ILS (Mus musculus [3]): 116%; Survivors (Mus musculus [4]): 0; Survivors (Mus musculus [5]): 0

Question: With `C=C1[C@H](n2cc(F)c(N)nc2=O)O[C@H](COP(=O)([O-])OC[C@H](COC(=O)CCCCCCCCCCCCCCC)OC(=O)CCCCCCCCCCCCCCC)[C@H]1O.[Na+]` as the molecule, how does the ILS (Mus musculus [1]) read?
Answer: Its ILS is 96%.

Question: What about the ILS (Mus musculus [6]) of the same molecule?
Answer: Its ILS is “Toxic”.

Question: What about the ILS (Mus musculus [2]) of the same molecule?
Answer: Its ILS is greater than 179%.

Question: What about the Survivors (Mus musculus [4]) of the same molecule?
Answer: The Survivors was 3.

Question: Which results are given for `C=C1[C@H](n2ccc(N)nc2=O)O[C@H](COP(=O)([O-])OC[C@@H](COC(=O)CCCCCCCCCCCCCCC)OC(=O)CCCCCCCCCCCCCCC)[C@H]1O.[Na+]`?
Answer: ILS (Mus musculus [1]): 64%; ILS (Mus musculus [2]): 121%; ILS (Mus musculus [3]): >179%; Survivors (Mus musculus [4]): 1; Survivors (Mus musculus [7]): 4
